Data as given in ChEMBL document CHEMBL1201862, “PubChem BioAssay data set” (2004).
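Exposure lasted 48 hours, with cells grown in 96-well plates and compounds tested at five concentrations. GI50: concentration for 50% inhibition of growth.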 Active and inactive are the calls of the source. Rule as the data show it: active = GI50 up to about 1.1 µM and inactive = higher.

Assays:
Test in all cases: NCI tumour cell line growth inhibition, 48 h
[1] = system: NCI/ADR-RES
[2] = system: A498
[3] = system: ACHN
[4] = system: MCF7
[5] = system: T47D
[6] = system: SW-620
[7] = system: HT-29
[8] = system: HCT-15
[9] = system: CAKI-1
[10] = system: PC-3
[11] = system: DU-145
[12] = system: OVCAR-5
[13] = system: MDA-MB-435
[14] = system: SF-295
[15] = system: OVCAR-3
[16] = system: 786-0
[17] = system: SK-MEL-5
[18] = system: UO-31
[19] = system: SNB-75

Structure (SMILES)	GI50 [1]	GI50 [2]	GI50 [3]	GI50 [4]	GI50 [5]	GI50 [6]	GI50 [7]	GI50 [8]	GI50 [9]	GI50 [10]	GI50 [11]	GI50 [12]	GI50 [13]	GI50 [14]	GI50 [15]	GI50 [16]	GI50 [17]	GI50 [18]	GI50 [19]
CCCCN/N=N/c1cn(C2OC(CO)C(O)C2O)c(=O)[nH]c1=O (stereo not given)	> 100 µM (inactive)	> 100 µM (inactive)	> 100 µM (inactive)	> 100 µM (inactive)	> 100 µM (inactive)	> 100 µM (inactive)	> 100 µM (inactive)	> 100 µM	> 100 µM (inactive)	> 100 µM (inactive)	> 100 µM (inactive)	> 100 µM (inactive)	> 100 µM (inactive)	> 100 µM (inactive)	> 100 µM (inactive)	> 100 µM (inactive)	> 100 µM (inactive)		
Cc1nnc2n1N=C(c1ccccc1)/C(=C/c1ccc(-c3ccc(Cl)cc3)o1)S2		17.3 µM (inactive)	13.5 µM (inactive)	2.11 µM (inactive)	5.22 µM (inactive)	5 µM (inactive)	16.5 µM (inactive)	8.53 µM	15.1 µM (inactive)	11.9 µM (inactive)	14.3 µM (inactive)	20.6 µM (inactive)	4.61 µM (inactive)	15.9 µM (inactive)	10.5 µM (inactive)	13.1 µM (inactive)	13.6 µM (inactive)	12.8 µM (inactive)	
COc1ccc(C2SC(=N)Nc3c2c(C)nn3C(=O)c2ccc(Cl)cc2)cc1OC (stereo not given)	> 10 µM (inactive)		> 10 µM (inactive)	> 10 µM (inactive)	> 10 µM (inactive)	> 10 µM (inactive)	> 10 µM (inactive)	> 10 µM	> 10 µM (inactive)	> 10 µM (inactive)	> 10 µM (inactive)	> 10 µM (inactive)	> 10 µM (inactive)	> 10 µM (inactive)	> 10 µM (inactive)	> 10 µM (inactive)	> 10 µM (inactive)		> 10 µM (inactive)
CCCn1c(=O)c2nn3c(=O)n(CCC)c(=O)c3nn2c1=O	> 100 µM (inactive)		> 100 µM (inactive)	> 100 µM (inactive)	> 100 µM (inactive)	> 100 µM (inactive)	> 100 µM (inactive)	> 100 µM	> 100 µM (inactive)	> 100 µM (inactive)	> 100 µM (inactive)	> 100 µM (inactive)	> 100 µM (inactive)	> 100 µM (inactive)	> 100 µM (inactive)	> 100 µM (inactive)	> 100 µM (inactive)	> 100 µM (inactive)	> 100 µM (inactive)
O=C(C=P(c1ccccc1)(c1ccccc1)c1ccccc1)c1ccc(-c2ccc(F)cc2F)cc1	3.09 µM (inactive)	2.64 µM (inactive)	2.44 µM (inactive)	2.55 µM (inactive)	2.33 µM (inactive)	3.58 µM (inactive)	2.18 µM (inactive)	2.29 µM	2.12 µM (inactive)	3.38 µM (inactive)	3.1 µM (inactive)	2.96 µM (inactive)	2.28 µM (inactive)	3.15 µM (inactive)	1.95 µM (inactive)	3.56 µM (inactive)	1.84 µM (inactive)	1.77 µM (inactive)	
Cc1ccc(-[n+]2cc([O-])on2)cc1	> 100 µM (inactive)	65.8 µM (inactive)	> 100 µM (inactive)		> 100 µM (inactive)	> 100 µM (inactive)	> 100 µM (inactive)	> 100 µM	> 100 µM (inactive)	> 100 µM (inactive)	> 100 µM (inactive)	> 100 µM (inactive)	> 100 µM (inactive)	> 100 µM (inactive)	> 100 µM (inactive)	> 100 µM (inactive)	> 100 µM (inactive)	> 100 µM (inactive)	
CN(/N=C/c1ccccn1)C1=NCCCN1	> 100 µM (inactive)	91.6 µM (inactive)	> 100 µM (inactive)	> 100 µM (inactive)	> 100 µM (inactive)	> 100 µM (inactive)	> 100 µM (inactive)	> 100 µM	> 100 µM (inactive)	> 100 µM (inactive)		> 100 µM (inactive)	> 100 µM (inactive)	> 100 µM (inactive)	> 100 µM (inactive)	> 100 µM (inactive)	> 100 µM (inactive)	> 100 µM (inactive)	> 100 µM (inactive)
Cc1nnc2n1N=C(c1cc(F)c(Cl)cc1Cl)/C(=C/c1ccc3c(c1)OCO3)S2	69.2 µM (inactive)	45.5 µM (inactive)	63.5 µM (inactive)	35.5 µM (inactive)	70.6 µM (inactive)	> 100 µM (inactive)	36.1 µM (inactive)	52.5 µM	69.7 µM (inactive)	63.1 µM (inactive)	72.8 µM (inactive)	32.1 µM (inactive)	45.9 µM (inactive)	53.3 µM (inactive)	34.4 µM (inactive)	47.4 µM (inactive)	> 100 µM (inactive)	> 100 µM (inactive)	
